{"source": "patent US9474780B2", "about": "“GIP and GLP-1 co-agonist compounds” (Eli Lilly and Company, priority 2015, dated 2016)", "key": {"human GIP-R": {"target": "T1, human GIP-R (Homo sapiens, UniProt P48546)", "T1 sequence (P48546 22-466)": "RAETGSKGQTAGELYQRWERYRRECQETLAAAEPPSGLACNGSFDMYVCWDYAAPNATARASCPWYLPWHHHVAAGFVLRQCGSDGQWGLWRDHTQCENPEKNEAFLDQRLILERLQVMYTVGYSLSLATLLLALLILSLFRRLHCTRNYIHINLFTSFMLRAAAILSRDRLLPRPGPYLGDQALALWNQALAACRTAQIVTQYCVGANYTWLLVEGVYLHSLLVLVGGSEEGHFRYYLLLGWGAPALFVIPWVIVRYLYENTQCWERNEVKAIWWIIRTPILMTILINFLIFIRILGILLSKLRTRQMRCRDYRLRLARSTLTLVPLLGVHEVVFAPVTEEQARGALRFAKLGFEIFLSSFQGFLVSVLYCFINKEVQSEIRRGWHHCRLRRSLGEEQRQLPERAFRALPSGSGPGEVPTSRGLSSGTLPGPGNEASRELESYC", "experiment": "Functional hGIP-R cAMP assay in HEK-293 clonal cells", "conditions": "HEK293, read-out: Human GIP-R Emax", "method": "(§1) After an incubation of 60 minutes at room temperature, the resulting increase in intracellular cAMP is quantitatively determined using the CisBio cAMP Dynamic 2 HTRF Assay Kit (Bedford, Mass.). Briefly, cAMP levels within the cell are detected by adding the cAMP-d2 conjugate in cell lysis buffer (20 μl) followed by the antibody anti-cAMP-Eu^3+-Cryptate, also in cell lysis buffer (20 μl). The resulting competitive assay is incubated for at least 60 minutes at room temperature, then detected using a PerkinElmer Envision® instrument with excitation at 320 nm and emission at 665 nm and 620 nm Envision units (emission at 665 nm/620 nm*10,000) are inversely proportional to the amount of cAMP present and are converted to nM cAMP per well using a cAMP standard curve. […] A relative EC50 value and percent top (Emax) is derived by non-linear regression analysis using the percent maximal response versus the concentration of the compound of the present invention, fitted to a four-parameter logistic equation."}, "[1]": {"experiment": "Pharmacokinetics in cynomolgus monkeys", "format": "in vivo", "conditions": "cynomolgus monkey, plasma, single SC 0.2 mg/kg, male monkeys, n = 2", "experimental": "The compounds are administered by a single intravenous or subcutaneous dose (0.2 mg/kg) in 20 mM citrate buffer (pH 7.0) at a volume of 0.21 ml/kg. Blood is collected from each animal at 2, 4, 8, 12, 24, 48, 72, 96, 120, 144, 168, 204, 240, and 312 hours post-dosage. The plasma concentrations of compounds of the present invention are determined by a LC/MS method. Briefly, a compound of the present invention is extracted from 100% Monkey plasma sample (50 μl) diluted with 1×PBS (150 μl) and mixed with N-butanol (400 μl). Three distinct liquid layers are formed with the compound located in the top layer. A volume of 200 μl is transferred to a v-bottom 96-well plate, dried down using heated Nitrogen gas and reconstituted with 100 μl of 30% acetonitrile/0.1% formic acid. 20 μl of the reconstituted sample is injected onto a Supelco Analytical Discovery bio wide C5 3 μm column. The column effluent is directed into a Thermo Q-Exactive mass spectrometer for detection and quantitation."}, "[2]": {"experiment": "Rat in vivo insulin secretion following intravenous glucose (IVGTT)", "conditions": "s.c. 16 hour prior to glucose", "experimental": "Male Wistar rats (Harlan Labs, Indianapolis, Ind.) are randomized by body weight and dosed 1.5 ml/kg s.c. 16 hour prior to glucose administration and then fasted. Doses are vehicle, 0.1, 0.3, 1, 3 and 10 nmol/kg. Animals are weighed, and then anesthetized with sodium pentobarbital (Nembutal Sodium solution; Ovation Pharmaceuticals) dosed i.p. (65 mg/kg, 30 mg/ml). A time zero blood sample is collected into EDTA tubes after which glucose is administered ([…], 5 ml/kg). Blood samples are collected at 2, 4, 6, 10, 20, and 30 minutes post glucose. Plasma glucose levels are determined using a Hitachi analyzer (Roche) and plasma insulin is measured by the MSD insulin assay (Meso Scale, Gaithersburg, Md.)."}, "human GLP-1R [3]": {"target": "T2, human GLP-1R (Homo sapiens, UniProt P43220)", "T2 construct": "expressed in transfected cells; host or cells: 293HEK, Hygromycin-selected; crude plasma membranes", "T2 sequence (P43220 24-463)": "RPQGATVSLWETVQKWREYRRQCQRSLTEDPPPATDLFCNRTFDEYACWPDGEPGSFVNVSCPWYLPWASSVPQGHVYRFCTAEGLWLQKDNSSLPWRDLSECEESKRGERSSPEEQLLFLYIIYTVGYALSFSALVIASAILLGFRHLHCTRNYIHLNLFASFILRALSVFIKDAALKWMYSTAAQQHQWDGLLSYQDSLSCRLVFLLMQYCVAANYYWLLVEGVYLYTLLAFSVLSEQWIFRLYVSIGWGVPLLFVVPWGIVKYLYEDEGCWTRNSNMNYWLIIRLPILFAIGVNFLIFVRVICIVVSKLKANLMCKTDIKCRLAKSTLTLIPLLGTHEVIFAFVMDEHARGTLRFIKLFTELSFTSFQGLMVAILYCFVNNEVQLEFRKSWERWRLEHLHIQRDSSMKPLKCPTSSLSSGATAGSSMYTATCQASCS", "experiment": "Functional hGLP-1R cAMP assay in HEK-293 clonal cells", "format": "cell-based", "conditions": "HEK293; percent of maximal response of hGLP-1(7-36)NH2", "method": "as §1"}, "mouse islets": {"system": "mouse islets", "experiment": "Mouse islet insulin secretion", "format": "cell-based", "conditions": "read-out: Mouse islet insulin secretion Mean ED50", "experimental": "To assess action of compounds of the present invention in a system representing physiological GLP-1R and GIP-R expression levels insulin secretion, compounds are tested for effects on insulin secretion from wild-type rodent islets.\nAfter common bile duct cannulation in male C57B1/6 mice (22-26 g) or male Sprague-Dawley rats (approx. 250 g), the pancreas is distended with Hank's buffer (3 ml for mice or 10 ml for rats, containing 2% BSA and 0.75 mg/ml Clzyme collagenase (VitaCyte). Subsequently, tissues are digested in Hank's buffer at 37° C. for 11-13 minutes (mice) or 14-16 minutes for rat pancreata. Purified islets (Histopaque-1100 gradient [Sigma-Aldrich], […] at 750× gravity) are cultured overnight in RPMI-1640 medium (Invitrogen) containing 10% FBS, 100 U/ml penicillin and 100 μg/ml streptomycin, and preconditioned by starvation in Earle's Balanced Salt Solution (EBSS) supplemented with 0.1% BSA and 2.8 mM glucose. Subsequently, islets are incubated in EBSS (Invitrogen) supplemented with 0.1% BSA, 2.8-11.2 mM glucose and increasing levels of compound (6 batches of 4 islets/condition). GLP-1(7-36)amide (30 nM) is used as a positive control. Insulin is measured over 90 minutes in supernatant using the MSD Insulin Assay (Meso Scale, Gaithersburg, Md.)."}, "Human GCGR": {"target": "Human GCGR (Homo sapiens, UniProt P47871)", "sequence (P47871 26-477)": "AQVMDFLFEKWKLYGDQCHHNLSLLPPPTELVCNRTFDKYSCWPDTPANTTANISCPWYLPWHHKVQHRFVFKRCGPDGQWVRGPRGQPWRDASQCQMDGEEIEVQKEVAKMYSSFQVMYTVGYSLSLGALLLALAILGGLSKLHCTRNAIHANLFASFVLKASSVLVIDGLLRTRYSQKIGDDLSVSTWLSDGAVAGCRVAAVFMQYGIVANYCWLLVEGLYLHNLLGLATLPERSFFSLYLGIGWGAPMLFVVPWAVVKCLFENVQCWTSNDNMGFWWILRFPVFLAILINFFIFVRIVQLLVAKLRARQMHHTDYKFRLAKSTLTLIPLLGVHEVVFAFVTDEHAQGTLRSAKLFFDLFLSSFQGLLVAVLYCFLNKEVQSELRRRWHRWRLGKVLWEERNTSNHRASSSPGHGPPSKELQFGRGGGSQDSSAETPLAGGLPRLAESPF", "experiment": "Functional hGCGR cAMP assay in HEK-293 clonal cells"}, "human GLP-1R [4]": {"target": "T2, human GLP-1R", "format": "binding"}, "[5]": {"experiment": "Weight loss, body composition and hepatic steatosis in DIO mice", "format": "in vivo, mouse", "conditions": "for Blood Glucose: Day 15", "experimental": "The effects on weight loss, body composition and hepatic steatosis in DIO mice for compounds of the present invention are evaluated in C57/BL6 DIO mice. […] Animals are individually housed in a temperature-controlled (24° C.) facility with a 12 hour light/dark cycle (lights on 22:00), and free access to food and water. […] Daily body weight and food intake are measured throughout the study. Absolute changes in body weight are calculated by subtracting the body weight of the same animal prior to the first injection of compound. […] On Day 15, blood glucose is measured with Accu-Chek glucometer (Roche) from tail vein blood and then animals may be sacrificed and livers removed and frozen. Liver triglycerides, determined from homogenates of livers collected at sacrifice, and plasma cholesterol are measured on a Hitachi Modular P clinical analyzer. Statistical comparisons between groups are done using one-way ANOVA followed by Dunnett's multiple comparison test. The ED50 for weight loss lowering is determined in GraphPad Prism using the non-linear fit tool."}}, "note": "“And” between values parts separate entries of the source, which are not always exact repeats. Equal values may be shown once. Numbered stars: 1 amine (or outer) side, 2 acyl side, 3 side chain; on linkers, the order of the positions; unused ones are H or OH. Square brackets hold non-standard residues; d marks the D form. Side chains are listed from the residue outwards. Peptide text beside a SMILES is read from it. * marks the point of attachment. C18 diacid = O=C(O)CCCCCCCCCCCCCCCCC(=O)*; γGlu = O=C(O)[C@H](CCC(=O)[*:2])N[*:1]; 1Nal = N[C@@H](Cc1cccc2ccccc12)C(=O)O; AEEA = NCCOCCOCC(=O)O; Aib = CC(C)(N)C(=O)O", "data": [{"smiles": "CC[C@H](C)[C@H](NC(=O)[C@H](CC(C)C)NC(=O)[C@H](Cc1c[nH]c2ccccc12)NC(=O)[C@H](CCC(N)=O)NC(=O)[C@@H](NC(=O)[C@H](Cc1cccc2ccccc12)NC(=O)[C@H](C)NC(=O)[C@H](CCCCNC(=O)COCCOCCNC(=O)COCCOCCNC(=O)CC[C@H](NC(=O)CC[C@H](NC(=O)CCCCCCCCCCCCCCCCC(=O)O)C(=O)O)C(=O)O)NC(=O)[C@H](CCC(N)=O)NC(=O)[C@H](C)NC(=O)[C@@H](NC(=O)[C@H](CCCCN)NC(=O)[C@H](CC(=O)O)NC(=O)[C@H](CC(C)C)NC(=O)C(C)(C)NC(=O)[C@@H](NC(=O)[C@H](CO)NC(=O)[C@H](Cc1ccc(O)cc1)NC(=O)[C@H](CC(=O)O)NC(=O)[C@H](CO)NC(=O)[C@@H](NC(=O)[C@H](Cc1ccccc1)NC(=O)[C@@H](NC(=O)CNC(=O)[C@H](CCC(=O)O)NC(=O)C(C)(C)NC(=O)[C@@H](N)Cc1ccc(O)cc1)[C@@H](C)O)[C@@H](C)O)[C@@H](C)CC)[C@@H](C)CC)C(C)C)C(=O)N[C@@H](C)C(=O)NCC(=O)NCC(=O)N1CCC[C@H]1C(=O)N[C@@H](CO)C(=O)N[C@@H](CO)C(=O)NCC(=O)N[C@@H](C)C(=O)N1CCC[C@H]1C(=O)N1CCC[C@H]1C(=O)N1CCC[C@H]1C(=O)N[C@@H](CO)C(N)=O", "note": "[Example 7] (H-Y[Aib]EGTFTSDYSI[Aib]LDKIAQK([AEEA-AEEA-γGlu-γGlu-C18 diacid])A[1Nal]VQWLIAGGPSSGAPPPS-NH2)", "values": [{"measurement": "Emax", "setting": "human GIP-R", "value": "106 ± 3", "unit": "%"}, {"measurement": "CL/F", "setting": "[1]", "value": 1.5, "unit": "mL/h/kg"}, {"measurement": "Cmax", "setting": "[1]", "value": 2900, "unit": "ng/mL"}, {"measurement": "AUC(0-inf)", "setting": "[1]; read-out: Mean AUC0-inf", "value": 136, "unit": "µg·h/mL"}, {"measurement": "half-life", "setting": "[1]; read-out: Mean T1/2 (converted)", "value": 1860, "unit": "min"}, {"measurement": "Tmax", "setting": "[1]; read-out: Mean Tmax", "value": 6, "unit": "h"}, {"measurement": "% max increase of insulin AUC", "setting": "[2]", "value": "278 +/− 26% and 335 +/− 35%"}, {"measurement": "Emax", "setting": "human GLP-1R [3]", "value": "97.2 ± 3.4", "unit": "%"}, {"measurement": "EC50", "setting": "mouse islets", "value": 11.3, "unit": "nM"}, {"measurement": "EC50", "setting": "Human GCGR", "value": "> 1000", "unit": "nM"}, {"measurement": "Molar ratio of hGLP-1R/hGIP-R", "setting": "human GLP-1R [4]; normalized by factor 4.53 from native GIP and GLP-1 binding", "value": 1.68}, {"measurement": "Absolute ratio of hGLP-1R/hGIP-R", "setting": "human GLP-1R [4]; ratio of Ki values", "value": 7.6}, {"measurement": "% Change from starting body weight", "setting": "[5]; Table 10, 10 nmol/kg", "value": "−15.08 ± 1.22", "unit": "%"}, {"measurement": "% Change from starting fat mass", "setting": "[5]; Table 10, 10 nmol/kg", "value": "−26.46 ± 2.31", "unit": "%"}, {"measurement": "% Change from starting body weight", "setting": "[5]; Table 10, 30 nmol/kg", "value": "−20.70 ± 1.95", "unit": "%"}, {"measurement": "% Change from starting fat mass", "setting": "[5]; Table 10, 30 nmol/kg", "value": "−43.49 ± 5.47", "unit": "%"}, {"measurement": "% Change from starting body weight", "setting": "[5]; Table 10, 100 nmol/kg", "value": "−24.36 ± 2.06", "unit": "%"}, {"measurement": "% Change from starting fat mass", "setting": "[5]; Table 10, 100 nmol/kg", "value": "−49.92 ± 3.40", "unit": "%"}, {"measurement": "Plasma Cholesterol", "setting": "[5]; Table 13, 10 nmol/kg", "value": "161.8 ± 6.2", "unit": "mg/dL"}, {"measurement": "Blood Glucose", "setting": "[5]; Table 13, 10 nmol/kg", "value": "113.6 ± 4.16", "unit": "mg/dL"}, {"measurement": "Plasma Cholesterol", "setting": "[5]; Table 13, 30 nmol/kg", "value": "153.6 ± 13.47", "unit": "mg/dL"}, {"measurement": "Blood Glucose", "setting": "[5]; Table 13, 30 nmol/kg", "value": "114.7 ± 4.70", "unit": "mg/dL"}, {"measurement": "Plasma Cholesterol", "setting": "[5]; Table 13, 100 nmol/kg", "value": "145.4 ± 9.48", "unit": "mg/dL"}, {"measurement": "Blood Glucose", "setting": "[5]; Table 13, 100 nmol/kg", "value": "114 ± 2.36", "unit": "mg/dL"}]}]}
